# Source: US4288596A, “Furoindoles” (priority 1978, dated 1981)
# Structures can show the parent of a compound that is named as a salt.
# Key:
# [1] = Analgesic effect by acetic acid writhing method; type: in vivo, mice of ddY strain; conditions: Mus musculus, 20 min; oral, mice; 0.7% acetic acid i.p. 20 min after dosing; read-out: Analgesic action (ED50), Writhing method
# Method: Test 1: ANALGESIC EFFECT BY ACETIC ACID WRITHING METHOD (Koster et al., Fed Proc., 18, 412 (1959))
# Ten mice of ddY strain weighing 18-24 g were used in testing each compound. Twenty minutes after oral administration of test compounds, 0.1 ml/10 g of 0.7% acetic acid solution was injected intraperitoneally and the number of writhing syndromes was recorded for 10 minutes from 10 minutes after acetic acid injection. ED50 values were calculated from inhibition percent for each test compound.
# [2] = Analgesic effect by tail pressure method; type: in vivo, mice of ddY strain; conditions: Mus musculus; oral, mice; pain threshold at 30, 60, 90 and 120 min; read-out: Analgesic action (ED50), Tail pressure method
# Method: Test 2: ANALGESIC EFFECT BY TAIL PRESSURE METHOD (Keijiro Takagi et al., Yakugaku Zasshi, 78, 553 ([…])) Ten mice of ddY strain weighing 18-24 g and showing pain threshold of 50-80 mmHg were used in testing each compound. The pain threshold was measured at 30, 60, 90 and 120 minutes after oral administration of the test compounds and positive analgesic response was recorded when the pain threshold was two or more times higher than pre-administration. ED50 values were calculated from the numbers of positive mice.
# [3] = Analgesic effect by D'Amour-Smith's method; type: in vivo, mice of ddY strain; conditions: Mus musculus; oral, mice; reaction time at 30, 60, 90 and 120 min; read-out: Analgesic action (ED50), D'Amour-Smith's method
# Method: Test 3: ANALGESIC EFFECT BY D'AMOUR-[…] METHOD (D'Amour et al., J. Pharmacol. Exp. Ther., 72, 74 (1941)) Ten mice of ddY strain weighing 18-24 g and showing reaction times of 2-5 seconds were used in testing each compound. The reaction time was measured at 30, 60, 90 and 120 minutes after oral administration of the test compounds and positive analgesic response was recorded when the reaction time was two or more times longer than pre-administration. ED50 values were calculated from the number of positive mice.
# [4] = Anti-inflammatory effect by carrageenin edema method; type: in vivo, male rats of Wistar strain; conditions: rats; for Ratio of antiedematous action (100 mg/kg test compound/100 mg/kg phenylbutazone): ratio of inhibition % at 100 mg/kg oral, values marked * in the anti-inflammatory column; for ED50: Rattus norvegicus, oral, carrageenin edema, foot volume at 3 hours, read-out: Anti-inflammatory action (ED50)
# Method: Test 4: ANTI-INFLAMMATORY EFFECT BY CARRAGEENIN EDEMA METHOD (Winter et al., Proc. Soc. Exp. Biol. Med., 111, 544 (1962)) Six male rats of Wistar strain weighing 110-120 g were used in testing each compound. […] ED50 values were calculated from the inhibition percent of foot volume, and the ratios of anti-edematous action of test compounds were calculated by the formula; (the inhibition % of 100 mg/kg test compounds)/(the inhibition % of 100 mg/kg phenylbutazone).
# in vivo = assay: in vivo; design: species or system male rats of Wistar strain; conditions: rat, po
# Method: Test 5: ULCERATION IN STOMACH (Brodie et al., Gastroenterology, 56, 206 (1969))
# Ten male rats of Wistar strain weighing 190-200 g were used for each dose. Rats were deprived of food for 24 hours before experiments. Test compounds were administered orally and 18 hours later the rats were sacrificed, thereafter the area of each gastric lesion was measured and summed under dissecting microscope (×9). UD50 values were calculated from the gastric lesion area.
Structure (SMILES),ED50 [1],ED50 [2],ED50 [3],Ratio of antiedematous action (100 mg/kg test compound/100 mg/kg phenylbutazone) [4],TD50 at 18 h (in vivo),ED50 [4]
"Cc1c(N(C)C)c(=O)n(-c2ccccc2)n1C [Aminopyrin, reference compound]",38 mg/kg,98 mg/kg,225 mg/kg,–,–,–
"Cn1c2ccccc2c2oc(C(=O)NCCCN3CCCCC3)cc21 [Compound No. 2, 4-methyl-furo[3,2-b]indole-2-(N-piperidinopropyl)carboxamide]",36 mg/kg,68 mg/kg,115 mg/kg,0.82,–,–
"O=C(NCCCN1CCCCC1)c1cc2[nH]c3cc(Cl)ccc3c2o1 [Compound No. 5, 6-chloro-furo[3,2-b]indole-2-(N-piperidinopropyl)carboxamide]",64.2 mg/kg,80 mg/kg,100 mg/kg,0.73,400 mg/kg,–
"Cn1c2cc(Cl)ccc2c2oc(C(=O)NCCCN3CCCCC3)cc21 [Compound No. 6, 6-chloro-4-methyl-furo[3,2-b]indole-2-(N-piperidinopropyl)carboxamide]",29.5 mg/kg,50 mg/kg,59 mg/kg,1.29,–,–
"CCn1c2cc(Cl)ccc2c2oc(C(=O)NCCCN3CCCCC3)cc21 [Compound No. 7, 6-chloro-4-ethyl-furo[3,2-b]indole-2-(N-piperidinopropyl)carboxamide]",56.4 mg/kg,41.8 mg/kg,31 mg/kg,1.45,–,–
"CC(C)n1c2cc(Cl)ccc2c2oc(C(=O)NCCCN3CCCCC3)cc21 [Compound No. 8, 6-chloro-4-isopropyl-furo[3,2-b]indole-2-(N-piperidinopropyl)carboxamide]",68.4 mg/kg,87 mg/kg,100 mg/kg,0.56,–,–
"Cn1c2cc(C(F)(F)F)ccc2c2oc(C(=O)NCCCN3CCCCC3)cc21 [Compound No. 10, 4-methyl-6-trifluoromethyl-furo[3,2-b]indole-2-(N-piperidinopropyl)carboxamide]",32.5 mg/kg,38 mg/kg,49 mg/kg,–,> 200 mg/kg,45.4 mg/kg
"CCn1c2cc(C(F)(F)F)ccc2c2oc(C(=O)NCCCN3CCCCC3)cc21 [Compound No. 11, 4-ethyl-6-trifluoromethyl-furo[3,2-b]indole-2-(N-piperidinopropyl)carboxamide]",30 mg/kg,41 mg/kg,50 mg/kg,1.29,–,–
"CC(C)n1c2cc(C(F)(F)F)ccc2c2oc(C(=O)NCCCN3CCCCC3)cc21 [Compound No. 12, 4-isopropyl-6-trifluoromethyl-furo[3,2-b]indole-2-(N-piperidinopropyl)carbonxamide]",68.3 mg/kg,93 mg/kg,300 mg/kg,2.19,351 mg/kg,–
"CCn1c2cc(F)ccc2c2oc(C(=O)NCCCN3CCCCC3)cc21 [Compound No. 13, 4-ethyl-6-fluoro-furo[3,2-b]indole-2-(N-piperidinopropyl)carboxamide]",87.5 mg/kg,90.8 mg/kg,79.9 mg/kg,0.84,–,–
"CCCn1c2cc(OC)ccc2c2oc(C(=O)NCCCN3CCCCC3)cc21 [Compound No. 14, 6-methoxy-4-n-propyl-furo[3,2-b]-indole-2-(N-piperidinopropyl)carboxamide]",81.2 mg/kg,84.6 mg/kg,> 100 mg/kg,0.92,–,–
"CCCn1c2cc(C)ccc2c2oc(C(=O)NCCCN3CCCCC3)cc21 [Compound No. 15, 6-methyl-4-n-propyl-furo[3,2-b]indole-2-(N-piperidinopropyl)carboxamide]",91 mg/kg,79.2 mg/kg,87.6 mg/kg,0.78,–,–
"CC(C)Cc1ccc(C(C)C(=O)O)cc1 (centres unmarked) [Ibuprofen, reference compound]",195 mg/kg,324 mg/kg,> 300 mg/kg,–,278 mg/kg,66.5 mg/kg
"CCCCC1C(=O)N(c2ccccc2)N(c2ccccc2)C1=O [Phenylbutazone, reference compound]",123 mg/kg,> 300 mg/kg,> 300 mg/kg,–,145 mg/kg,110 mg/kg
"O=C(Cn1c(=O)sc2ccc(Cl)cc21)N1CCN(CCO)CC1 [Tiaramide HCl, reference compound]",66 mg/kg,110 mg/kg,93 mg/kg,–,> 200 mg/kg,84.3 mg/kg
